Earlier results in US6608222B2, “Bioactive conjugated linoleic acid glycerides and method of use” (Alpha Food Ingredients, Inc., priority 2000, dated 2003).

Tested on: hamsters
Conditions: feeding studies with hamsters; compared with a composite group of CLA-FFA isomers

For `CCCCCC/C=C/C=C\CCCCCCCC(=O)O` [purified c-9, t-11 CLA-FFA, cis-9, trans-11-octadecadienoic acid], the biological activity is listed as “not so biologically active as a composite group of CLA-FFA isomers”.
